Source: a melting point compilation (Tetko et al.; mined from patent text by program, amines drawn as free bases though some values may be those of a salt)

melting point | Compound
177 °C | CCCC(=O)Cc1ccc(C(=O)Nc2ccc3cc(CN4CCN(C)CC4)cnc3c2C)cc1
162 to 163 °C | Cn1nc(OCCCc2cc(-c3ccc(C(F)(F)F)cc3)no2)cc1C(=O)O
200 to 202 °C | Cc1ccc(C(=O)Nc2ccc(-n3nc(C(F)(F)F)cc3C(F)(F)F)cc2)s1
270 °C | COc1ccc(C(=O)Nc2ccc3ccc(Cl)nc3n2)cn1
150 to 153 °C | CN1CCN(c2nnc3c4ccccc4c(Cl)cn23)CC1
204 to 205 °C | CCOC(=O)N(C)N1CCc2ccccc2C(Oc2ccc(C(F)(F)F)cc2)C1 (stereo not given)
214 to 218 °C | CCCc1ccc(C(=O)Nc2ccc3c(c2)nc(C)n3C)cc1
180 to 182 °C | CN1CCN(c2cccc(CS(=O)(=O)c3ccccc3)c2[N+](=O)[O-])CC1
97 to 98 °C | COC(=O)C1=C(C)N(CCCc2ccccc2)C(C)=C(C(=O)OC)C1c1ccc(OC)c(OC)c1
222 to 224 °C | CCN(CC)C1CCCCN(CC(=O)N2c3ccccc3C(=O)Nc3cccnc32)C1 (stereo not given)
244 to 246 °C | O=C(Nc1ccc2nc(CN3CCCC3)ccc2c1)[C@H]1CO[C@H](c2ccc(Cl)cc2)OC1
> 300 °C | Nc1nc(O)nc2nc(-c3ccco3)nn12
107 to 109 °C | O=C(O)c1cc(OCCCc2ccccc2)cc(OCCCc2ccccc2)c1
80 to 100 °C | NC(=O)CCN1CCN(C(=O)c2cc(C(F)(F)F)cc(C(F)(F)F)c2)[C@H](Cc2c[nH]c3ccccc23)C1
216 °C | NC(=O)Oc1ccccc1-c1nc2ccc(OCc3c(F)cccc3F)cc2s1
159 to 162 °C | COc1ccc(Cl)c(Cc2c(Cl)nc(N3CCOCC3)nc2NS(=O)(=O)c2ccc(C(C)(C)C)cc2)c1
133 to 135 °C | Cc1ccc(-c2nn(-c3ccccc3C)c(N)c2C(N)=O)cc1
59 to 60 °C | Fc1cc(Cl)ccc1-n1nc2c(c1Br)CCCCC2
201 to 202 °C | O=c1c(CCCc2ccccn2)cc2cccnc2n1-c1cccc([N+](=O)[O-])c1
234 to 237 °C | C=Cc1cc(C(F)(F)F)ccc1-c1cc(Oc2cccc3sc(NC(C)=O)nc23)ncn1
193 to 194 °C | O=C(c1ccccc1)c1ccc(OCCc2c[nH]cn2)cc1
50 °C | CCCCCCCNC(=O)Oc1ccc2c(c1)N(Cc1ccccc1)CCC2
> 300 °C | Cn1c(=O)c2nc(-c3ccc(/C=C/C(=O)O)cc3)[nH]c2n(Cc2cccc(C#N)c2)c1=O
108 to 110 °C | COc1ccc(CCNC(=O)COCCC(=O)NCCc2ccccc2)cc1OC
167 to 168 °C | Cc1c(NC(=O)c2ccc(OCc3ccc(Cl)cc3)cc2)ccc2cc(CN3CCCC3)cnc12
235 to 236 °C | c1ccc2[nH]c(CN3CCOCC3)nc2c1
53 to 54 °C | CCCCCCCCCCCc1nccn1-c1nc(-c2ccc(Cl)cc2)c(CCCOc2ccccc2OC)o1

melting point | Compound
104 °C | ClCc1cccc2c(-c3ccccc3)nccc12
127 to 128 °C | O=C(O)CCCc1ccc2sc3ccccc3c2c1
169 to 179 °C | Cc1cc(NS(=O)(=O)c2ccccc2)cnc1CCCC(=O)O
103 to 105 °C | CC1(C)Oc2ccc(C#N)cc2C(Oc2ccncn2)C1(C)O (stereo not given)
> 310 °C | Cc1nc2c(N)nc(-c3ccncc3)nc2[nH]1
161 to 162 °C | COc1cccc(CN2CCc3cc(O)c(OC)cc3C2)c1
188 to 189 °C | Oc1ccc(-n2nc3ccc(Cl)cc3n2)c(O)c1
256 to 258 °C | Cn1c2cc(Cl)ccc2c2c(C(=O)N3CCCC3)nc(-c3ccncc3)nc21
195 to 197 °C | Brc1cccc(-c2ccnn2-c2ccc3c(c2)OCO3)c1
89 to 94 °C | Cc1cc(Cn2nnn(-c3cccc(C(F)(F)F)c3)c2=O)ccc1N
142 to 143 °C | CC(CCN1C(=O)c2ccccc2C1=O)Cc1ccc(C(=O)CCC(=O)O)cc1 (stereo not given)
168 to 170 °C | CC(=O)NC(C(=O)NCc1ccncc1)c1ccco1 (stereo not given)
> 300 °C | CC(C)Oc1nc2cc([N+](=O)[O-])c(-n3ccc(=O)cc3)cc2[nH]c1=NC#N
158 to 160 °C | CCCCc1nc(C2CCCCC2)n(Cc2ccc(-c3ccccc3-c3ncn[nH]3)cc2)n1
153 to 154 °C | Cc1nn(-c2ccccn2)c2nc3ccccc3cc12
28 to 31 °C | COc1cccc2ncoc12
254 to 259 °C | O=C(c1cnccn1)N1CCN(Cc2ccc3c(c2)-c2[nH]nc(-c4ccsc4)c2C3)CC1
246 to 248 °C | O=C(O)COc1cccc(-c2n[nH]c3c2Cc2ccccc2-3)c1
184 to 185 °C | O=[N+]([O-])C1=CN(Cc2ccccc2)C2C([N+](=O)[O-])=CN(Cc3ccccc3)C1N2Cc1ccccc1
136 to 139 °C | CS(=O)(=O)Nc1cccc(Nc2nc(Oc3ccc(F)cc3)c3nc[nH]c3n2)c1
135 to 137 °C | CC(=O)c1ccc(OCCCN2CCC(c3nsc4cc(F)ccc34)CC2)c(O)c1
198 to 203 °C | COc1ccc2ccccc2c1C1C(CC(=O)O)CC(=O)N1c1ccccc1 (stereo not given)
127 to 130 °C | COc1ccc(-c2cc(OCc3ccccc3)c(=O)n(C)c2-c2ccncc2)cc1
189 to 191 °C | Cc1ccc2[nH]c(=O)n(C(C)(C)C(=O)OCC(=O)c3ccccc3)c(=O)c2c1
197 to 198 °C | COc1cc2c(Oc3ccc(Cl)cc3F)ncnc2cc1OCc1ccncc1
131 to 132 °C | CC(C)CC1(C(CCN2C(=O)c3c(F)ccc(F)c3C2=O)C(=O)NO)CCN(CCc2ccccc2)C1=O (stereo not given)
203 to 208 °C | CCOC(=O)c1cn(C)c2c(=O)oc3ccccc3c2c1=O

Continued, molecule first:

Compound | melting point
CC1(CN2CCN(C(=O)Cc3ccc(Cl)c(Cl)c3)CC2)Cn2cc([N+](=O)[O-])nc2O1 (stereo not given) | 189 to 191 °C
COc1ccc(OC)c2c1c(C(=O)C(=O)NC1=CC(=O)OC1)cn2Cc1ccc(Cl)cc1 | 212 to 215 °C
O=C1CO[C@@H]2c3ccccc3OCC[C@H]2N1 (relative stereo) | 246 to 248 °C
CCCc1c(O)c(C(C)=O)cc(Cl)c1OCCCOc1ccc2ccc(OCC(=O)O)cc2c1C(C)=O | 132 to 134 °C
CN(CC(=O)Nc1ccccc1N)C(=O)OC(C)(C)C | 134 to 136 °C
COc1cc(C2CCC(c3cc(OC)c(OC)c(OC)c3)O2)cc(OC)c1OC (stereo not given) | 128 to 130 °C
O=C1N[C@@H](C(=O)O)CCCCCC[C@@H]1CS (relative stereo) | 180 to 185 °C
CCOP(=O)(OCC)C(CCc1cc(C)nc2c(C#N)c(C)nn12)P(=O)(OCC)OCC | 49 to 50 °C
CN1CCC(c2n[nH]c3cc(F)ccc23)CC1 | 217 to 220 °C
CCCCCN1OCCN(c2ccc(Cl)c(Cl)c2)C1=O | < 40 °C
CC1OC(Cn2cncn2)(c2ccc(Cl)cc2Cl)C1(C)C (stereo not given) | 118 to 125 °C
CCCc1c(OCC(O)CS(=O)(=O)c2ccc(CC(=O)O)c(Cl)c2Cl)ccc(C(C)=O)c1O (stereo not given) | 181 to 183 °C
C=CCOc1ccc2c(c1CC=C)NC(=O)CC2 | 119 to 121 °C
CC(C)(C)OC(=O)C1CSC(c2cccc(F)c2F)N1 (mixture of isomers) | 120 °C
O=[N+]([O-])c1c(O)c(O)cc2c1C(=NO)CC2 | 200 to 201 °C
C[C@]1(CN2CCN(C(=O)OCc3ccc(OC(F)(F)F)cc3)CC2)Cn2cc([N+](=O)[O-])nc2O1 | 140 °C
N#CC=CC(=O)C=NN1CC(=O)NC1=O | 171 to 173 °C
C=CCOC(=O)c1cc(OCC=C)c(OCC=C)c(S(C)(=O)=O)c1 | 78 to 80 °C
NS(=O)(=O)c1cc(Br)cc(C(F)(F)F)c1 | 174 to 175 °C
CNC(=O)c1[nH]c(=O)[nH]c1C | > 300 °C
CC(=O)Oc1ccc2c(c1)COC(C(Cl)(Cl)Cl)N2 (stereo not given) | 155 to 157 °C
O=C1C=C(c2c[nH]c3ccc(Br)cc23)C(=O)N1 | 268 °C
CC1C=C2CCCCCCCCCC=C2C1 (stereo not given) | 98 to 103 °C

Compound | melting point
CN1CCCNC(=O)C1 | 91 °C
NS(=O)(=O)c1cc(C(=O)O)cc(C(F)(F)F)c1 | 244 to 246 °C
COc1cc2c(cc1OC)CN(CC(O)CN1CCC(c3noc4cc(F)ccc34)CC1)CC2 (stereo not given) | 153 to 154 °C
C[C@@H](NC(=O)C1(C)CC(F)(F)C1)c1ccc(Br)cc1 | 120 to 122 °C
CCCc1c(O)c(C(C)=O)cc(Cl)c1OCCOCCOc1c(C(C)=O)ccc(OCC(=O)O)c1CCC | 89 to 91 °C
CSCC[C@H](NC(=O)[C@@H]1CS[C@H](c2ccccc2O)N1C(=O)CCSC(C)=O)C(=O)O | 59 to 64 °C
C=CCc1c(O)cc(O)c(C(C)=O)c1O | 158 to 159 °C
Nc1nc(C(F)(F)F)cc(=O)n1N | 215 to 218 °C
CNC(=O)CCCCN1CCC(C(O)(c2ccc(F)cc2)c2ccc(F)cc2)CC1 | 130 to 131 °C
CCC(c1ccncc1)N1CCCNS1(=O)=O (stereo not given) | 90 to 105 °C
OCC(O)Cc1nccn1CCCCc1ccc(OCc2coc(/C=C/c3ccc(C(F)(F)F)cc3)n2)cc1 (stereo not given) | 142 to 143 °C
CC(O)(c1ccc(Cl)cc1)C1CCNCC1 (stereo not given) | 178 to 180 °C
CCCc1c(OCCCOc2ccc(C(=O)CCC(=O)O)c(F)c2)ccc(C(C)=O)c1O | 113 to 118 °C
CN(C)c1c(Cl)cc(C(O)C#Cc2ccc(C(=O)O)c(O)c2)cc1C(C)(C)C (stereo not given) | 175 °C
CCOc1c(CO)cnc2c1cnn2CC | 100 to 102 °C
CCCCCCCCNC(=O)N1CCC(Oc2ccc(CCNC[C@H](O)COc3ccc(O)cc3)cc2)CC1 | 79 to 81 °C
N#Cc1cc(F)c(-n2nc(C(F)(F)F)n(N)c2=O)cc1F | 141 °C
FC(F)(F)Oc1cccc(CN2CCC(Nc3nnc(C(F)(F)F)s3)CC2)c1 | 116 °C
CCC(C)(C)NC(=O)C(=O)C(C)(C)C | 36 °C
O=C(CS)N1CCSC1COc1ccccc1O (stereo not given) | 92 to 93 °C
O=C(NC(=O)c1cccs1)c1cncc([N+](=O)[O-])c1 | 187 °C
COC(=O)CCCCC(C)C1CCC2C3CCC4CC(OC=O)CCC4(C)C3CC(OC=O)C12C (stereo not given) | 67 to 72 °C
Cc1cc(C)nc(NC(=O)NS(=O)(=O)N2CCCC2)n1 | 180 to 181 °C
